The record followed here is patent US12570655B2, “Cysteine covalent modifiers of AKT1 and uses thereof” (Terremoto Biosciences, Inc., priority 2023, dated 2026).

Holding throughout (type): cell-based
One assay concerns the target T1, AKT1 E17K (Homo sapiens, UniProt P31749, E17K).
T1 construct: expressed in transfected cells; host or cells: HEK293
Briefly: Live cell AKT1 E17K target engagement by NanoBRET competitive probe displacement. The note with it: HEK293 cells transfected with kinase-NanoLuciferase fusion, 2 h at 37° C. The procedure, abridged:
(§1)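 IC50 reflects displacement of a fluorescent ATP-competitive tracer, dosed near its EC50, from kinase–NanoLuciferase fusions in live HEK293 cells. Cells were incubated with compound and tracer for 2 h at 37 °C, then E600/E460 BRET was read.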

For assay [1], the system named is LAPC4 prostate cancer cells. Briefly: Antiproliferative effects in LAPC4 cells (CellTiter Glo). Particulars: LAPC4 cells (AKT1 E17K allele), read-out: LAPC4 proliferation IC50. The essentials:
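Seed 1,000 cells/well in IMDM/12% FBS/1% P/S; add compound dilutions (DMSO); incubate 72 h; read intracellular ATP with CellTiter Glo; fit luminescence to log(inhibitor)-response Hill curve for IC50.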

In a further assay the target is T2, AKT2 (Homo sapiens, UniProt P31751).
T2 construct: expressed in transfected cells; host or cells: HEK293
Briefly: Live cell AKT2 target engagement by NanoBRET competitive probe displacement. The note with it: HEK293 cells transfected with kinase-NanoLuciferase fusion, 2 h at 37° C. The essentials:
as §1

The target of another assay is T3, AKT1 WT (Homo sapiens, UniProt P31749).
T3 construct: expressed in transfected cells; host or cells: HEK293
Briefly: Live cell AKT1 WT target engagement by NanoBRET competitive probe displacement. Particulars: HEK293 cells transfected with kinase-NanoLuciferase fusion, 2 h at 37° C. The procedure, abridged: as §1

The structures appear in SMILES notation. pIC50: −log10 of the molar value. Like-named read-outs stand apart in the source and are kept apart here. A value given as a limit tells only on which side of the number the result lay.

T1 sequence (P31749 whole entry E17K): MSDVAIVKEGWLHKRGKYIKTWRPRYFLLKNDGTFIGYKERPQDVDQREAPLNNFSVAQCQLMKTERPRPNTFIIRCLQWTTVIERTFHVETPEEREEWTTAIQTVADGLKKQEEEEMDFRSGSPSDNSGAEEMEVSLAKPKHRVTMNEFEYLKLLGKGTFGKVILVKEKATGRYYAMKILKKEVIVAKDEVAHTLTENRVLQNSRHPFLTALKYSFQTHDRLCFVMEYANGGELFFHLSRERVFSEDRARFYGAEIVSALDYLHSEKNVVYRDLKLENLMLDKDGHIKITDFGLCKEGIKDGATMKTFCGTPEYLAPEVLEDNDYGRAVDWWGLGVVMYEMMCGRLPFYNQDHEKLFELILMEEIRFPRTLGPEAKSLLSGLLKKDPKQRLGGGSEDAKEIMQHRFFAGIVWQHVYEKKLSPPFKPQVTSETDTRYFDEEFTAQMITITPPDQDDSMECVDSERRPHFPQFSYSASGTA
T3 sequence (P31749 whole entry): as the sequence (P31749 whole entry E17K) above, with K17E counted along it
T2 sequence (P31751 whole entry): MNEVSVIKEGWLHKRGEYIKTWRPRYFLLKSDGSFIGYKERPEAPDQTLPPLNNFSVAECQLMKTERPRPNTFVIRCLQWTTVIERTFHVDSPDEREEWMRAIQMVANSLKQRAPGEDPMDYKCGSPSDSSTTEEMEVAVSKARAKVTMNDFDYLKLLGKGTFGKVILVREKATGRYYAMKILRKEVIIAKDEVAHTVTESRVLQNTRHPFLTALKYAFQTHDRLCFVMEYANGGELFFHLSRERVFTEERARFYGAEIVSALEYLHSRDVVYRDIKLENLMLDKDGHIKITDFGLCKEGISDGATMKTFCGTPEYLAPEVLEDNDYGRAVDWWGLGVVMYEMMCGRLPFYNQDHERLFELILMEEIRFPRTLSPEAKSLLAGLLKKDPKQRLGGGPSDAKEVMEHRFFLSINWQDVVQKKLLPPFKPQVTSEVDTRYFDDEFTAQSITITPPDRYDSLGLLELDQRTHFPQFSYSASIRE

Take `C=CC(=O)N1CCC(N[C@H]2CCc3cc(-n4c(-c5cccnc5N)nc5ccc(-n6cccn6)nc54)ccc32)C1` (single isomer, unassigned) [Example 57, 1-((*)-3-(((S)-5-(2-(2-aminopyridin-3-yl)-5-(1H-pyrazol-1-yl)-3H-imidazo[4,5-b]pyridin-3-yl)-2,3-dihydro-1H-inden-1-yl)amino)pyrrolidin-1-yl)prop-2-en-1-one]: the pIC50 at AKT1 E17K is 7.66; in assay [1] (72 h), 6.98; on AKT2, 7.07; on AKT1 WT it was 7.98.

In the case of `C=CC(=O)N1CCc2ccc(C(=O)N[C@H]3CCc4cc(-n5c(-c6cccnc6N)nc6ccc(-n7cccn7)nc65)ccc43)cc21` [Example 7, (S)-1-acryloyl-N-(5-(2-(2-aminopyridin-3-yl)-5-(1H-pyrazol-1-yl)-3H-imidazo[4,5-b]pyridin-3-yl)-2,3-dihydro-1H-inden-1-yl)indoline-6-carboxamide], the pIC50 at AKT1 E17K is 7.37; in assay [1] (Homo sapiens, LAPC4, 72 h), 5.69; at AKT2 it was 7.16; on AKT1 WT, 7.68.

Turning to `C=CC(=O)N1CCC(N[C@H]2CCc3cc(-n4c(-c5cccnc5N)nc5ccc(-n6cccn6)nc54)ccc32)c2ccccc21` (single isomer, unassigned) [Example 127, 1-[(4*)-4-{[(1S)-5-[2-(2-aminopyridin-3-yl)-5-(pyrazol-1-yl)imidazo[4,5-b]pyridin-3-yl]-2,3-dihydro-1H-inden-1-yl]amino}-3,4-dihydro-2H-quinolin-1-yl]prop-2-en-1-one], the pIC50 at AKT1 E17K is 8.09; in assay [1] (72 h), 7.43; on AKT2 it was 7.43; at AKT1 WT, 8.04.

`C=CC(=O)N1C[C@H]2CCC[C@@H](C1)C2N[C@H]1CCc2cc(-n3c(-c4cccnc4N)nc4ccc(-n5cccn5)nc43)ccc21` (single isomer, unassigned) [Example 189, 1-((1R,5S,9*)-9-(((S)-5-(2-(2-aminopyridin-3-yl)-5-(1H-pyrazol-1-yl)-3H-imidazo[4,5-b]pyridin-3-yl)-2,3-dihydro-1H-inden-1-yl)amino)-3-azabicyclo[3.3.1]nonan-3-yl)prop-2-en-1-one]: the pIC50 on AKT1 E17K was 7.22; in assay [1] (72 h), 5.86; at AKT2 it was 6.13; on AKT1 WT, 5.83.

For the compound `C=CC(=O)N1CCN(N(C)C2CCc3cc(-n4c(-c5cccnc5N)nc5ccc(-n6cccn6)nc54)ccc32)CC1` (single isomer, unassigned) [Example 180, 1-(4-{[(1*)-5-[2-(2-aminopyridin-3-yl)-5-(pyrazol-1-yl)imidazo[4,5-b]pyridin-3-yl]-2,3-dihydro-1H-inden-1-yl](methyl)amino}piperazin-1-yl)prop-2-en-1-one], the pIC50 is 7.73 at AKT1 E17K, 6.20 in assay [1] (72 h), 6.80 at AKT2 and 6.61 on AKT1 WT.

`C=CC(=O)N1CCCC(N[C@H]2CCc3cc(-n4c(-c5cccnc5N)nc5ccc(-n6cccn6)nc54)ccc32)C1` (single isomer, unassigned) [Example 125, 1-[(3*)-3-{[(1S)-5-[2-(2-aminopyridin-3-yl)-5-(pyrazol-1-yl)imidazo[4,5-b]pyridin-3-yl]-2,3-dihydro-1H-inden-1-yl]amino}piperidin-1-yl]prop-2-en-1-one]: the pIC50 at AKT1 E17K is 6.04; in assay [1] (72 h), 5.68; at AKT2, 5.48; at AKT1 WT, 6.53.

`C=CC(=O)NC1CC(N[C@H]2CCc3cc(-n4c(-c5cccnc5N)nc5ccc(-n6cccn6)nc54)ccc32)C1` (single isomer, unassigned) [Example 90, N-((1*,3*)-3-(((S)-5-(2-(2-aminopyridin-3-yl)-5-(1H-pyrazol-1-yl)-3H-imidazo[4,5-b]pyridin-3-yl)-2,3-dihydro-1H-inden-1-yl)amino)cyclobutyl)acrylamide]: the pIC50 at AKT1 E17K was 6.81; in assay [1] (72 h) it was 6.45; at AKT2, 6.96; on AKT1 WT, 7.39.

As to `C=CC(=O)N1CCC(N[C@H]2CCc3cc(-n4c(-c5ccccc5)nc5ccc(-n6cccn6)nc54)ccc32)CC1` [Example 152, (S)-1-(4-((5-(2-phenyl-5-(1H-pyrazol-1-yl)-3H-imidazo[4,5-b]pyridin-3-yl)-2,3-dihydro-1H-inden-1-yl)amino)piperidin-1-yl)prop-2-en-1-one], the pIC50 at AKT1 E17K was less than 6.00; in assay [1] (Homo sapiens, LAPC4, 72 h), less than 5.00; at AKT2, less than 5.00; on AKT1 WT, less than 6.00.

As for `C=CC(=O)N1CCC(N[C@H]2CCc3cc(-n4c(-c5cccnc5N)nc5ccc(-n6nccn6)nc54)ccc32)C[C@H]1C` (single isomer, unassigned) [Example 262, 1-[(2R,4*)-4-{[(1S)-5-[2-(2-aminopyridin-3-yl)-5-(1,2,3-triazol-2-yl)imidazo[4,5-b]pyridin-3-yl]-2,3-dihydro-1H-inden-1-yl]amino}-2-methylpiperidin-1-yl]prop-2-en-1-one], the pIC50 on AKT1 E17K was 7.53; in assay [1] (72 h), 7.08; on AKT2 it was 7.34; at AKT1 WT, 6.19.

With `C=CC(=O)N1CCC(N[C@H]2CCc3cc(-n4c(-c5cccnc5N)nc5ccc(-c6cccnc6)nc54)ccc32)CC1` [Example 110, (S)-1-(4-((5-(2-(2-aminopyridin-3-yl)-5-(pyridin-3-yl)-3H-imidazo[4,5-b]pyridin-3-yl)-2,3-dihydro-1H-inden-1-yl)amino)piperidin-1-yl)prop-2-en-1-one], the pIC50 at AKT1 E17K is 6.85; in assay [1] (Homo sapiens, LAPC4, 72 h), 6.53; on AKT2 it was 6.20; on AKT1 WT it was 7.66.

Regarding `C=CC(=O)N1CCC(N[C@H]2CCc3cc(-n4c(-c5cccnc5N)nc5ccc(-n6cccn6)nc54)ccc32)C(O)C1` (single isomer, unassigned) [Example 139, 1-[(3*,4*)-4-{[(1S)-5-[2-(2-aminopyridin-3-yl)-5-(pyrazol-1-yl)imidazo[4,5-b]pyridin-3-yl]-2,3-dihydro-1H-inden-1-yl]amino}-3-hydroxypiperidin-1-yl]prop-2-en-1-one], the pIC50 was 7.53 at AKT1 E17K, 7.38 in assay [1] (72 h), 6.94 on AKT2 and 7.87 at AKT1 WT.

For the compound `C=CC(=O)N1CCN(NC2CCc3cc(-n4c(-c5cccnc5N)nc5ccc(-n6ccc(F)n6)nc54)ccc32)CC1` (single isomer, unassigned) [Example 200, 1-(4-{[(1*)-5-[2-(2-aminopyridin-3-yl)-5-(3-fluoropyrazol-1-yl)imidazo[4,5-b]pyridin-3-yl]-2,3-dihydro-1H-inden-1-yl]amino}piperazin-1-yl)prop-2-en-1-one], the pIC50 is 7.80 at AKT1 E17K, 6.50 in assay [1] (72 h), 7.10 on AKT2 and 6.55 on AKT1 WT.

As to `C=CC(=O)N1CCC(N[C@H]2CCc3cc(-n4c(-c5cccnc5N)nc5cc(F)c(-n6cccn6)nc54)ccc32)CC1` [Example 313, 1-(4-{[(1S)-5-[2-(2-aminopyridin-3-yl)-6-fluoro-5-(pyrazol-1-yl)imidazo[4,5-b]pyridin-3-yl]-2,3-dihydro-1H-inden-1-yl]amino}piperidin-1-yl)prop-2-en-1-one], the pIC50 at AKT1 E17K is 7.66; in assay [1] (Homo sapiens, LAPC4, 72 h), 6.46; at AKT2, 6.95; on AKT1 WT it was 6.29.

In the case of `C=CC(=O)Nc1cnccc1C(=O)N[C@H]1CCc2cc(-n3c(-c4cccnc4N)nc4ccc(-n5cccn5)nc43)ccc21` [Example 41, N-[(1S)-5-[2-(2-aminopyridin-3-yl)-5-(pyrazol-1-yl)imidazo[4,5-b]pyridin-3-yl]-2,3-dihydro-1H-inden-1-yl]-3-(prop-2-enamido)pyridine-4-carboxamide], the pIC50 was less than 6.00 on AKT1 E17K; 5.01 in assay [1] (Homo sapiens, LAPC4, 72 h); 5.30 on AKT2; 6.52 on AKT1 WT.

On to `C=CC(=O)N1CCC(N[C@H]2CCc3cc(-n4c(-c5cccnc5N)nc5ccc(-c6ccccn6)nc54)ccc32)CC1` [Example 207, (S)-1-(4-((5-(2-(2-aminopyridin-3-yl)-5-(pyridin-2-yl)-3H-imidazo[4,5-b]pyridin-3-yl)-2,3-dihydro-1H-inden-1-yl)amino)piperidin-1-yl)prop-2-en-1-one], for which the pIC50 is 8.15 on AKT1 E17K; 6.94 in assay [1] (Homo sapiens, LAPC4, 72 h); 7.45 on AKT2; 7.31 at AKT1 WT.

Regarding `C=CC(=O)N1CCC(N[C@H]2CCc3cc(-n4c(-c5ccccc5)nc5ccc(C6CC6)nc54)ccc32)CC1` [Example 246, 1-(4-{[(1S)-5-{5-cyclopropyl-2-phenylimidazo[4,5-b]pyridin-3-yl}-2,3-dihydro-1H-inden-1-yl]amino}piperidin-1-yl)prop-2-en-1-one], the pIC50 on AKT1 E17K is 7.18; in assay [1] (Homo sapiens, LAPC4, 72 h), 5.80; at AKT2, 6.15; at AKT1 WT, 5.60.

Regarding `C=CC(=O)N1CC2(CCC(N[C@H]3CCc4cc(-n5c(-c6cccnc6N)nc6ccc(-n7cccn7)nc65)ccc43)C2)C1` (single isomer, unassigned) [Example 91, 1-((*)-6-(((S)-5-(2-(2-aminopyridin-3-yl)-5-(1H-pyrazol-1-yl)-3H-imidazo[4,5-b]pyridin-3-yl)-2,3-dihydro-1H-inden-1-yl)amino)-2-azaspiro[3.4]octan-2-yl)prop-2-en-1-one], the pIC50 was 6.94 at AKT1 E17K, 6.45 in assay [1] (72 h), 6.25 at AKT2 and 7.44 at AKT1 WT.
